The values that follow are results of earlier work, collected in US20070219250A1, “Pharmaceutical Compositions of Nateglinide” (priority 2003, published 2007).

As to `CC(C)[C@H]1CC[C@H](C(=O)N[C@H](Cc2ccccc2)C(=O)O)CC1` [Nateglinide], the Solubility in water entry is on record as “insoluble”.
